“And” between values parts separate entries of the source, which are not always exact repeats. Identical values can stand only once.
Experiments:
[1] = Therapeutic effect on Strophanthin G arrhythmia in rabbits; format: in vivo
Protocol: To investigate the therapeutic effect of the preparation according to the present invention relative to the Strophanthin arrhythmia, another series of experiments was carried out. Strophanthin was intravenously administered to rabbits of both sexes with a mass of 3.0 to 3.8 kg at a general dose of 80 μg/kg which caused arrhythmia within 40-60 minutes. The test preparation was intravenously administered at the background of arrhythmia in the test group.
(§1) After the administration of the preparation at a dose of 5 mg/kg the regular synusal rhythm was retained for 12±5 minutes on the average, whereafter arrhythmia was gradually renewed, but it could be again eliminated by a repeated administration of the preparation at a dose of 2-5 mg/kg. In such cases the sinusal rhythm was retained for 15 to 30 minutes and in the majority of tests arrhythmia never renewed. Furthermore, an experiment was carried out on narcotized guinea pigs with a mass of 600-710 g to which Strophanthin -K was administered into the femoral vein at a total dose of 500 μg/kg.

[2] = Antianginal effect in patients, intravenous; format: in vivo; details: 0.2 to 0.4 g intravenous
Protocol: The antianginal and antiarrhythmic effects of the preparation according to the present invention were evaluated with the use of the injection pharmaceutical form of the preparation administered intravenously in an amount of 0.2 to 0.4 g based on the active ingredient.

[3] = Clinical tests on patients with various kinds of pathology; details: human, in vivo
Excerpt: The pharmaceutical preparation according to the present invention can be useful in the treatment of such diseases as heart insufficiency, valvular defects, myocarditises, cardiosclerosis, ischemic heart disease, rhythm disturbances of different genesis. […] The preparation according to the present invention has been tested in experiments on animals and in clinics on patients with various kinds of pathology.
The preparation has been studied on more than 65 patients suffering from various pathology of the cardio-vascular systems such as heart rhythm disturbances (arrhythmia) of different etiology, ischemic heart disease, stenocardia, and atherosclerosis.

[4] = Threshold of electric fibrillation of auricles and ventricles in cats; format: in vivo
Protocol: Furthermore, the preparation according to the present invention was tested for specific antiarrhythmic and antianginal effects. […] The effect of the novel pharmaceutical composition according to the present invention was studied on cats weighing 2.9-3.6 kg. The preparation was used as a 10% aqueous solution containing 3-(2,2,2-trimethylhydrazinium)propionate for the determination of the threshold value of electric fibrillation of auricles and ventricles. Under artificial respiration after opening of the thorax and pericardium, needle-like electrodes were applied to the right auricula and apex of the left ventricle. The irritation was effected by square pulses of 1 m.s., 15 st/s.
For the comparison of preparations, as the criterion of the range of therapeutic effect, there was used the ratio of the half-lethal dose to the half-effective dose (LD50 /ED50) which was referred to as the antiarrhythmic index. […] The comparative study of the antiarrhythmic activity of pharmaceutical preparations using an acotine model of arrhythmia was effected in experiments on white rats weighing 190-240 g. The test preparations were administered intraperitoneally 10-40 minutes before administration of aconitine.

[5] = Strophanthin arrhythmia in guinea pigs (450 μg/kg); format: in vivo
Protocol: As the third model of arrhythmia, there was used strophanthin arrhythmia in guinea pigs. […] Against the background of arrhythmia the test preparations were administered intravenously.

[6] = Effect on Strophanthin K arrhythmia in narcotized guinea pigs (500 μg/kg); format: in vivo
Protocol: as §1
The preparation based on 3-(2,2,2-trimethylhydrazonium)propionate was intravenously administered against the background of arrhythmia in the test group.
The graph illustrates the recording of ECG of a guinea pig.
The effect of compound I on Strophanthin arrhythmia in guinea pigs.

fruit flies = assay: Mutagenous activity on fruit flies; format: in vivo; details: dihydrate
[7] = Coronary circulation and hemodynamics in narcotized cats; format: in vivo
Protocol: In acute experiments on narcotized cats with a mass of from 2.9 to 4.1 kg under artificial respiration, arterial pressure was recorded in the common carotide artery, central venous pressure in the right auricle, volume rate of blood flow in the ascending aortic arch and volume rate of the coronary blood flow. At the same time, there was recorded the content of oxyhemoglobin in venous coronary blood.

in vivo = format: in vivo
salmoneallae = assay: Mutagenous activity on salmonellae; details: dihydrate
[8] = Physicochemical properties of the dihydrate (solubility, stability, hygroscopicity)

Compound: C[N+](C)(C)NCCC(=O)[O-] [3-(2,2,2-trimethylhydrazinium)propionate]
- Duration regular sinus rhythm was retained ([1]; 5 mg/kg, average): 12 ± 5 min
- Time to arrest of ventricular tachyarrhythmia ([1]; 1 to 3 mg/kg intravenous): 1 to 2 min
- Effect on ventricular tachyarrhythmia ([1]; 1 to 3 mg/kg intravenous, majority of tests): temporarily arrested ventricular tachyarrhythmia
- Changes in the complex QRST ([1]; intravenous): reduced
- Duration sinusal rhythm was retained after repeated administration ([1]; repeated administration, 2-5 mg/kg): 15 to 30 min
- Stability of analgesic effect [2]: not always stable
- Effect on retrosternal pains ([2]; 8 cases in 5 patients): rapidly cut short retrosternal pains
- Therapeutic effects in paroxysmal tachycardia, fibrillation, A-V block and paroxysms [3]: positive, though less pronounced, effects
- Therapeutic results in chronic decompensation (rheumatic valvular defects) and acute circulatory insufficiency (myocardial infarction) [3]: Especially pronounced therapeutic results
- Increase of the threshold of electrical fibrillation of auricle and ventricles ([4]; 6 to 15 mg/kg intravenous): 40-55%
- ED50 ([4]; Felis catus, iv, read-out: ED50, electric irritation of cat's heart): 10 ± 3.5 mg/kg
- Antiarrhythmic index LD50/ED50, electric irritation of cat's heart ([4]; intravenous): 443 and 433
- ED50 ([5]; Cavia porcellus, intravenous, read-out: ED50, Strophanthin arrhythmia in guinea pigs): 7.8 ± 2.3 mg/kg
- Antiarrhythmic index LD50/ED50, Strophanthin arrhythmia in guinea pigs ([5]; guinea pig, in vivo): 568
- Duration for which Strophanthin-induced arrhythmia is cut short / ECG improved ([5]; intravenous): 5 to 20 min
- Effect on atrio-ventricular block ([6]; 2-5 mg/kg, timely administration, some cases): possible to also eliminate the atrio-ventricular block
- Changes in the complex QRST and atrial fibrillation ([6]; intravenous): The changes in the complex QRST were reduced and the atrial fibrillation disappeared
- Effect on ventricular arrhythmia ([6]; intravenous): temporarily arrested the ventricular arrhythmia
- Time to arrest of ventricular arrhythmia ([6]; intravenous): 2 to 3 min
- Mutagenous activity (fruit flies): does not have mutagenous activity
- Change of arterial pressure ([7]; 2 mg/kg): 0 + -5%
- Change of central venous pressure ([7]; 2 mg/kg): 0%
- Change of heart output ([7]; 2 mg/kg): 0 + +5%
- Increase duration ([7]; 2 mg/kg): 20 min
- Volume rate, percent of increase ([7]; 2 mg/kg): 15%
- Change of central venous pressure ([7]; 10 mg/kg): -5%
- Change of heart output ([7]; 10 mg/kg): +5 - 10%
- Increase duration ([7]; 10 mg/kg): 45 min
- Volume rate, percent of increase ([7]; 10 mg/kg): 40%
- Change of arterial pressure ([7]; 25 mg/kg): -8 - +5%
- Change of central venous pressure ([7]; 25 mg/kg): -10%
- Change of heart output ([7]; 25 mg/kg): +10 - 20%
- Increase duration ([7]; 25 mg/kg): 70 min
- Volume rate, percent of increase ([7]; 25 mg/kg): 55%
- Therapeutical index higher than carbocromene ([7]; 314 vs. 130): approximately 3 times
- Saturation of the venous blood of coronary sinus with oxygen ([7]; in vivo): lastingly increase saturation of the venous blood of coronary sinus with oxygen
- Therapeutical index ([7]; in vivo): 314
- LD50 (in vivo; mouse, in vivo, ip, read-out: Acute toxicity, LD50): 7850 mg/kg
- Toxicity lower than that of carbocromene (in vivo; vs carbocromene): 12 times
- Mutagenous activity (salmoneallae): does not have mutagenous activity
- Hygroscopicity ([8]; dihydrate): slightly hygroscopic
- Solubility in hot ethanol and methanol ([8]; dihydrate): well soluble
- Solubility in nonpolar solvents ([8]; dihydrate): insoluble
- Solubility in water ([8]; dihydrate): well soluble
- Storage stability ([8]; dihydrate, closed area, room temperature): 2 years
- Thermal stability ([8]; heating above 40° C.): loses crystallization water and slowly decomposes

Reference: patent US4451485A, “Treatment of cardio-vascular diseases with 3-(2,2,2-trimethylhydrazinium) propionate dihydrate” (Institu Organicheskogo Sinteza Akademii Nauk Latviiskoi SSR, priority 1981, dated 1984)
